Data from publication PMC7419010 (PLoS Pathogens, 2020).

Assays:
[1] = system: Lsa-nAChR-α1 and Lsa-nAChR-α2 with Lsa-nAChR-β1 and APs (Lsa-nAChR-β2 removed); assay: Two-electrode voltage-clamp, oocytes with Lsa-nAChR-α1, -α2, -β1 and APs (Lsa-nAChR-β2 removed); assay type: cell-based, Lepeophtheirus salmonis; conditions: Lsa-nAChR-β2 removed from injection mix
Description: (§1) To determine the subunit composition of the functional L. salmonis nAChR channel, we tried different possible combinations of the six nAChR subunit (α1, α2, α3, α7, β1 and β2) cRNAs along with the cRNAs from the three AP, injected into X. laevis oocytes, which is one of the most commonly used systems for functional expression of nAChRs. Three to five days after injection, the presence of a functional nAChR was investigated by the two-electrode voltage-clamp method. To determine the relative contribution of each gene for the functional expression of nAChR, we removed cRNAs from the injection mixture, either singularly or in combination (Fig 2). […]
(§2) Oocytes were impaled with two electrodes filled with 3 M KCl, and their membrane potentials were maintained at -80 mV throughout the experiment. Currents evoked by ACh or drugs were recorded using an automated process equipped with standard two-electrode voltage-clamp configuration (HiClamp, MultiChannel Systems). […] Data were captured at 100 Hz, filtered at 10 Hz, and analyzed using proprietary data acquisition and analysis software running under Matlab (Mathworks Inc., Natick, MA, USA). […] Plots of the peak inward currents as a function of the logarithm of the agonist concentration yield classical concentration-activation curves were readily fitted by single Hill equations. […]

[2] = system: hybrid Locusta migratoria/Rattus norvegicus nAChR; design: method as in earlier work; conditions: hybrid receptor in Xenopus oocytes; ref 25 (Bao et al.); cited from earlier work
Lsa-nAChR1 (α1α2β1β2) [3] = target: T1, Lsa-nAChR1 (α1α2β1β2) (Lepeophtheirus salmonis, UniProt A0A7S5PZ05+A0A7S5Q3W4+A0A7S5Q7H3+A0A7S5U9A3); assay: cell-based; assay type: cell-based
Protocol: (§3) Capped cRNAs were synthesized (T7 mMessage mMachine kit, Ambion, Austin, TX, USA) from the linearized vectors containing the different subunits according to the manufacturer’s protocol. cRNA samples were stored at -80°C until use. Oocytes were ordered from Ecocyte (Germany). Oocytes were microinjected using a Roboinject automatic injection system (Multi Channel Systems, Reutlingen, Germany) with 15–25 nl of cRNA solution (30–300 ng/μl per subunit) and then incubated at 18°C in sterile filtered Barth solution containing: NaCl (88 mM), KCl (1 mM), NaHCO3 (2.4 mM), HEPES (10 mM, pH 7.5), MgSO4·7H2O (0.82 mM), Ca(NO3)2·4H2O (0.33 mM), CaCl2·6H2O (0.41 mM), at pH 7.4, and supplemented with 20 μg/ml of kanamycin, 100 U/ml benzylpenicillin and 100 μg/ml streptomycin. Recordings were made 3–5 days post-cRNA injection.
(§4) Oocytes were impaled with two electrodes filled with 3 M KCl, and their membrane potentials were maintained at -80 mV throughout the experiment. Currents evoked by ACh or drugs were recorded using an automated process equipped with standard two-electrode voltage-clamp configuration (HiClamp, MultiChannel Systems). The principle of this system differs from standard electrophysiology because, instead of applying the compound in the perfusion, the oocyte is moved into a well from a 96-well microtiter plate containing the desired solution. Data were captured at 100 Hz, filtered at 10 Hz, and analyzed using proprietary data acquisition and analysis software running under Matlab (Mathworks Inc., Natick, MA, USA). Additional analyses were performed in Excel (Microsoft, Redmond, WA, USA). […] Concentration-activation curves were fitted with the equation: Y=100/1+10^H(logEC50−X) (1) where Y is the normalized response, logEC50 is the logarithm of the concentration of agonist eliciting half-maximal current amplitude, X is the log of dose or concentration, and H is the slope factor or Hill slope. Individual curves were standardized to the initial ACh (100 μM) application amplitude and subsequently averaged. EC50 values were determined from the mean of at least 3 or more cells.
(§5) Dose-response curves were obtained by sequential applications for 10s of increasing concentrations of ACh or drugs to oocytes expressing Lsa-nAChR1 or Lsa-nAChR2. A total time of 90 s time was allowed between applications for the channel to recover from any desensitization. To test the antagonistic effect of DHbE (Fig 5) and for the screening protocol (Fig 6), cells that evoked a significant current with ACh were exposed to the test compounds at 10 μM respectively 1 μM using a pre-application of 45 s and co-application of 10 s with ACh (1 μM).

Lsa-nAChR2 (α3β1β2) [4] = target: T2, Lsa-nAChR2 (α3β1β2) (Lepeophtheirus salmonis, UniProt A0A7S5PZ03+A0A7S5PZ05+A0A7S5Q7H3); assay: cell-based; assay type: cell-based
Protocol: as §3, §4, §5

[5] = system: six nAChR subunits (α1, α2, α3, α7, β1 and β2) and the three APs; assay: Two-electrode voltage-clamp, oocytes co-injected with all six nAChR subunits and three ancillary proteins; assay type: cell-based, Lepeophtheirus salmonis; conditions: equimolar co-injection
Description: as §1, §2

Lsa-nAChR2 (α3β1β2) [6] = target: T2, Lsa-nAChR2 (α3β1β2); assay type: cell-based; conditions: co-applied at 10 μM, both ratios (10:1 and 1:10)
Lsa-nAChR1 (α1α2β1β2) [7] = target: T1, Lsa-nAChR1 (α1α2β1β2); assay type: cell-based; conditions: co-applied at 10 μM, both ratios (10:1 and 1:10)
[8] = oocytes exposed to acetylcholine

T1 sequence (A0A7S5PZ05 entry or part of it): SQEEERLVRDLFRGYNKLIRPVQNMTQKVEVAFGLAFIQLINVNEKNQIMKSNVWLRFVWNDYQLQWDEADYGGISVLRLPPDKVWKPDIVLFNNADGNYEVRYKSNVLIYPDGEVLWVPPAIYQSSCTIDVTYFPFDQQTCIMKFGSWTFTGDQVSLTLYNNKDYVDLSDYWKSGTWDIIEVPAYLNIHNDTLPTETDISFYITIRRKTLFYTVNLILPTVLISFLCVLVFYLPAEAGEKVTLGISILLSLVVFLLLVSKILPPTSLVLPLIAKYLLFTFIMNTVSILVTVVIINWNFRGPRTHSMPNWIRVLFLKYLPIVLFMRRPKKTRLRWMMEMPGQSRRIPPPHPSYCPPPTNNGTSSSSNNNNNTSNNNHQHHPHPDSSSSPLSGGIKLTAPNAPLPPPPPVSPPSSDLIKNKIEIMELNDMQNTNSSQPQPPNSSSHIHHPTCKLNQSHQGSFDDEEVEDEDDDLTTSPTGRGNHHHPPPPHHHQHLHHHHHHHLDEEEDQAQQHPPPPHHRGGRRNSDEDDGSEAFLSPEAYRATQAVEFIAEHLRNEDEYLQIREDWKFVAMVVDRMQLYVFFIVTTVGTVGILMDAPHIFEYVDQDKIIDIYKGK
T1 sequence (A0A7S5Q3W4 entry or part of it): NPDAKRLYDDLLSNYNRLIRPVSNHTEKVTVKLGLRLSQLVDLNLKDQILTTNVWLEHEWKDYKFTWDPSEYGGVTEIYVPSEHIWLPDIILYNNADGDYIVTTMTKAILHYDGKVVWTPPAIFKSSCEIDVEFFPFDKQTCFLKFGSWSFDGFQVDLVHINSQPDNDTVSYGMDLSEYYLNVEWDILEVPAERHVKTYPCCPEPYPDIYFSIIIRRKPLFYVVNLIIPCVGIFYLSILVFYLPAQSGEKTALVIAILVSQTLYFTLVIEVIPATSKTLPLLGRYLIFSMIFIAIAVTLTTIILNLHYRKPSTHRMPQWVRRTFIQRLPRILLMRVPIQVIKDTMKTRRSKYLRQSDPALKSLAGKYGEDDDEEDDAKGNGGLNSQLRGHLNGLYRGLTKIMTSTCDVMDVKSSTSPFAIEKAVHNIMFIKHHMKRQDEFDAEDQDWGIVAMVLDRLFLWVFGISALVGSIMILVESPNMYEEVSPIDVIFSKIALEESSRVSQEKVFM
T1 sequence (A0A7S5U9A3 entry or part of it): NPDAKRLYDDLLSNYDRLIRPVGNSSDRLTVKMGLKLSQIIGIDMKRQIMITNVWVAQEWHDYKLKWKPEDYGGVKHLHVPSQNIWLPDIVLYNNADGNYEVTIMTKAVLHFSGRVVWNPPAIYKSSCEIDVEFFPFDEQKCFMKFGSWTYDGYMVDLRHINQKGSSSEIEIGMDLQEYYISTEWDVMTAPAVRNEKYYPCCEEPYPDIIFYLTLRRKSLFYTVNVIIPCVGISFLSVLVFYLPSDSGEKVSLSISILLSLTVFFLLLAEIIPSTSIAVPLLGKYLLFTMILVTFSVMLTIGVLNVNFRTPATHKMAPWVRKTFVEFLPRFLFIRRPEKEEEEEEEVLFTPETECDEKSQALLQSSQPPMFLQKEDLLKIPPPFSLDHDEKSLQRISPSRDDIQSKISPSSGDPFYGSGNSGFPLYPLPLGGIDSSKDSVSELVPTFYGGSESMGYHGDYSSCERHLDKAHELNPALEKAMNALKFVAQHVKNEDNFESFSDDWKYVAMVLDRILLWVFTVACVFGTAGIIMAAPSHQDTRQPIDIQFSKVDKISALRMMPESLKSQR
T1 sequence (A0A7S5Q7H3 entry or part of it): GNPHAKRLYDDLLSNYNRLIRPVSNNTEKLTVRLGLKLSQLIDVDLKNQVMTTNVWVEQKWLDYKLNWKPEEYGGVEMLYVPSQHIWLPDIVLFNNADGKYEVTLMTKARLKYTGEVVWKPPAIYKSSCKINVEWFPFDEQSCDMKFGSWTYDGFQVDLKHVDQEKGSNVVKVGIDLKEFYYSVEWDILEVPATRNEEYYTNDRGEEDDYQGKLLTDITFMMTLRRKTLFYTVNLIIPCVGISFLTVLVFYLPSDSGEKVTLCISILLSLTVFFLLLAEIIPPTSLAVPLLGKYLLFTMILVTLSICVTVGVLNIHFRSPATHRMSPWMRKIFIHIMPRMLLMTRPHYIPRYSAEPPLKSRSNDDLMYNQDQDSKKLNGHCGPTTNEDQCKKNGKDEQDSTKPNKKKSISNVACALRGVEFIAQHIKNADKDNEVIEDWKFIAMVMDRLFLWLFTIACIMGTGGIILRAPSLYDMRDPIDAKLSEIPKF

| Compound | current (median) with 100 μM ACh [1] [μA] | maximum response to acetylcholine [2] [μA] | current (median) with 100 μM ACh (Lsa-nAChR1 (α1α2β1β2) [3]; Lsa-nAChR-α1 and -α2 with both β subunits and APs) [μA] | type of effect on the receptor (agonist / partial-agonist / no effect) (Lsa-nAChR1 (α1α2β1β2) [3]; dose-response, 1:1 (α:β) ratio) | averaged maximum response (Lsa-nAChR1 (α1α2β1β2) [3]; [8]) [μA] | Mean Hill Slope ± SD (Lsa-nAChR1 (α1α2β1β2) [3]; ratio α/β 1:10) | Mean max current (μA) (Lsa-nAChR1 (α1α2β1β2) [3]; ratio α/β 1:10) | Mean Hill Slope ± SD (Lsa-nAChR1 (α1α2β1β2) [3]; ratio α/β 10:1) | Mean max current (μA) (Lsa-nAChR1 (α1α2β1β2) [3]; ratio α/β 10:1) | Emax (Lsa-nAChR1 (α1α2β1β2) [3]; read-out: Max peak (% Ach)) [%] | type of effect on the receptor (agonist / partial-agonist / super-agonist / no effect) (Lsa-nAChR2 (α3β1β2) [4]; dose-response, 1:1 (α:β) ratio) | Max peak (% Ach) (Lsa-nAChR2 (α3β1β2) [4]; maximal peak current compared to ACh 100 μM, 1:1 (α:β) ratio) [%] | averaged maximum response (Lsa-nAChR2 (α3β1β2) [4]; [8]) [μA] | Mean Hill Slope ± SD (Lsa-nAChR2 (α3β1β2) [4]; ratio α/β 1:10) | Mean max current (μA) (Lsa-nAChR2 (α3β1β2) [4]; ratio α/β 1:10) | Mean Hill Slope ± SD (Lsa-nAChR2 (α3β1β2) [4]; ratio α/β 10:1) | Mean max current (μA) (Lsa-nAChR2 (α3β1β2) [4]; ratio α/β 10:1) | current (median) with 100 μM ACh [5] [μA] | inhibition of the ACh-triggered (10 μM) response (Lsa-nAChR2 (α3β1β2) [6]) | inhibition of the ACh-triggered (10 μM) response (Lsa-nAChR1 (α1α2β1β2) [7]) |
| --- | --- | --- | --- | --- | --- | --- | --- | --- | --- | --- | --- | --- | --- | --- | --- | --- | --- | --- | --- | --- |
| CC(=O)OCC[N+](C)(C)C [Acetylcholine] | 0.17 | 0.24 | 4.50 | agonist | > 5 | 1.44 ± 0.52 | 8.35 | 1.46 ± 0.37 | 4.85 | 100 | agonist | 100 | > 5 | 1.25 ± 0.23 | 3.17 | 1.30 ± 0.22 | 2.52 | 17.00 | – | – |
| CO[C@H]1CC=C2CCN3CCC4=C(CC(=O)OC4)[C@]23C1 [DHbE, Dihydro-β-erythroidine] | – | – | – | – | – | – | – | – | – | – | – | – | – | – | – | – | – | – | completely inhibit | completely inhibit |
